Results on 28 compounds are retold here after US11136296B2, “Substituted N-arylethyl-2-arylquinoline-4-carboxamides and use thereof” (Bayer Aktiengesellschaft, priority 2017, dated 2021).

Molecules are shown by their SMILES. Where only a bound is given, the exact number is not on record here.

Usually IC50 stands for the concentration needed to halve the response being measured.

Chain of FP receptor (P43088 whole entry): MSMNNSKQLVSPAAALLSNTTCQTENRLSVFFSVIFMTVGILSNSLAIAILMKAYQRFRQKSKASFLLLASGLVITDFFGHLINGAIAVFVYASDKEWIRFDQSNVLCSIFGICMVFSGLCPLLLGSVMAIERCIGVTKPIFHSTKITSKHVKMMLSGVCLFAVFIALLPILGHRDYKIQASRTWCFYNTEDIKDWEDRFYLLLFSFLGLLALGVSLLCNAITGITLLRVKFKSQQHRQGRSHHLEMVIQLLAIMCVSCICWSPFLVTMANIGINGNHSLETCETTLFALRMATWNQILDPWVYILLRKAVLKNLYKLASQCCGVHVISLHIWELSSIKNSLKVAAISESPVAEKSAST

This experiment concerns the target FP receptor (Homo sapiens (Human), UniProt P43088). Description: In vitro test of inhibition of human FP receptor activity (PGF2α-induced calcium flux in FP-expressing CHEM1 cells). Particulars: PGF2α-induced (2 nM) calcium flux in FP-expressing CHEM1 cells; some as mean values from multiple determinations. The class given is cell-based. From the text:
Table 1 below lists the IC50 values from this assay for individual working examples of the invention (some as mean values from multiple independent individual determinations): […]
For orientation: Calcium assays in cells follow changes in intracellular calcium, usually with a dye or a luminescent sensor.
As to `O=C(O)CCC(CNC(=O)c1c(Cl)c(-c2ccccc2)nc2ccc(Br)cc12)c1ccccc1C(F)(F)F` (single isomer, unassigned; (+)) [Example 217, (+)-5-{[(6-Bromo-3-chloro-2-phenylquinolin-4-yl)carbonyl]amino}-4-[2-(trifluoromethyl)phenyl]pentanoic Acid], the 50% inhibitory concentration (IC50) was 19 nM. In the case of `C#Cc1ccc2nc(-c3ccccc3)c(C)c(C(=O)NCC(CCC(=O)O)c3ccccc3Cl)c2c1` (single isomer, unassigned; (+)) [Example 220, (+)-4-(2-Chlorophenyl)-5-{[(6-ethynyl-3-methyl-2-phenylquinolin-4-yl)carbonyl]amino}pentanoic Acid] it was 8 nM; in that of `O=C(O)CCC(CNC(=O)c1c(Cl)c(-c2ccccc2)nc2ccc(Br)cc12)c1c(F)ccc(F)c1Cl` (single isomer, unassigned; (+)) [Example 223, (+)-5-{[(6-Bromo-3-chloro-2-phenylquinolin-4-yl)carbonyl]amino}-4-(2-chloro-3,6-difluorophenyl)pentanoic Acid], 12 nM; in that of `Cc1c(-c2ccccc2)nc2ccc(Br)cc2c1C(=O)NCC(CCC(=O)O)c1c(F)cccc1C(F)(F)F` (single isomer, unassigned; (+)) [Example 226, (+)-5-{[(6-Bromo-3-methyl-2-phenylquinolin-4-yl)carbonyl]amino}-4-[2-fluoro-6-(trifluoromethyl)phenyl]pentanoic Acid], 100 nM. For `Cc1c(-c2ccccc2)nc2ccc(Br)cc2c1C(=O)NCC(CCC(=O)O)c1c(F)c(F)cc(F)c1F` (single isomer, unassigned; (+)) [Example 230, (+)-5-{[(6-Bromo-3-methyl-2-phenylquinolin-4-yl)carbonyl]amino}-4-(2,3,5,6-tetrafluorophenyl)pentanoic Acid] the value was 49 nM; for `Cc1c(-c2ccccc2)nc2ccc(Br)cc2c1C(=O)NCC(CCC(=O)O)c1c(Cl)ccc(Cl)c1Cl` (single isomer, unassigned; (+)) [Example 235, (+)-5-{[(6-Bromo-3-methyl-2-phenylquinolin-4-yl)carbonyl]amino}-4-(2,3,6-trichlorophenyl)pentanoic Acid], 32 nM. In the case of `Cc1c(-c2ccccc2)nc2ccc(Br)cc2c1C(=O)NCC(C)(CCCC(=O)O)c1ccccc1Cl` (single isomer, unassigned; (+)) [Example 242, (+)-6-{[(6-Bromo-3-methyl-2-phenylquinolin-4-yl)carbonyl]amino}-5-(2-chlorophenyl)-5-methylhexanoic Acid] it was 16 nM.

With `Cc1c(-c2ccccc2)nc2ccc(Br)cc2c1C(=O)NCC(C)(CCCC(=O)O)c1ccccc1` (single isomer, unassigned; (+)) [Example 245, (+)-6-{[(6-Bromo-3-methyl-2-phenylquinolin-4-yl)carbonyl]amino}-5-methyl-5-phenylhexanoic Acid], the IC50 turned out to be 63 nM. Consider `Cc1c(-c2ccccc2)nc2ccc(Br)cc2c1C(=O)NCC(C(=O)O)c1ccccc1` (single isomer, unassigned; (-)) [Example 2, (−)-3-{[(6-Bromo-3-methyl-2-phenylquinolin-4-yl)carbonyl]amino}-2-phenylpropanoic Acid], for which the IC50 came out at 160 nM. In the case of `COc1ccccc1C(CNC(=O)c1c(C)c(-c2ccccc2)nc2ccc(Br)cc12)C(=O)O` (single isomer, unassigned; (-)) [Example 8, (−)-3-{[(6-Bromo-3-methyl-2-phenylquinolin-4-yl)carbonyl]amino}-2-(2-methoxyphenyl)propanoic Acid] it was 130 nM; in that of `Cc1c(-c2ccccc2)nc2ccc(Br)cc2c1C(=O)NCC(C)(C(=O)O)c1ccccc1` (single isomer, unassigned; (-)) [Example 14, (−)-3-{[(6-Bromo-3-methyl-2-phenylquinolin-4-yl)carbonyl]amino}-2-methyl-2-phenylpropanoic Acid], 53 nM; in that of `CCC(CNC(=O)c1c(C)c(-c2ccccc2)nc2ccc(Br)cc12)(C(=O)O)c1ccccc1` (single isomer, unassigned; (-)) [Example 17, (−)-2-({[(6-Bromo-3-methyl-2-phenylquinolin-4-yl)carbonyl]amino}methyl)-2-phenylbutanoic Acid], 260 nM. For `Cc1c(-c2ccccc2)nc2ccc(Br)cc2c1C(=O)NCC(O)(C(=O)O)c1ccccc1` (single isomer, unassigned; (-)) [Example 21, (−)-3-{[(6-Bromo-3-methyl-2-phenylquinolin-4-yl)carbonyl]amino}-2-hydroxy-2-phenylpropanoic Acid] the value was 170 nM; for `Cc1c(-c2ccccc2)nc2ccc(Br)cc2c1C(=O)NCC(C)(C(=O)O)c1ccccc1F` (single isomer, unassigned; (-)) [Example 31, (−)-3-{[(6-Bromo-3-methyl-2-phenylquinolin-4-yl)carbonyl]amino}-2-(2-fluorophenyl)-2-methylpropanoic Acid], 68 nM. On to `Cc1c(-c2ccccc2)nc2ccc(Br)cc2c1C(=O)NCC(C)(C(=O)O)c1c(F)cccc1F` (single isomer, unassigned; (-)) [Example 34, (−)-3-{[(6-Bromo-3-methyl-2-phenylquinolin-4-yl)carbonyl]amino}-2-(2,6-difluorophenyl)-2-methylpropanoic Acid], for which the half-inhibitory concentration (IC50) was determined as 130 nM.

Turning to `Cc1c(-c2ccccc2)nc2ccc(Br)cc2c1C(=O)NCC(C)(C(=O)O)c1ccccc1Cl` (single isomer, unassigned; (-)) [Example 36, (−)-3-{[(6-Bromo-3-methyl-2-phenylquinolin-4-yl)carbonyl]amino}-2-(2-chlorophenyl)-2-methylpropanoic Acid], the IC50 amounted to 810 nM. For `Cc1c(-c2ccccc2)nc2ccc(Br)cc2c1C(=O)NCC(F)(C(=O)O)c1ccccc1` (single isomer, unassigned; (-)) [Example 39, (−)-3-{[(6-Bromo-3-methyl-2-phenylquinolin-4-yl)carbonyl]amino}-2-fluoro-2-phenylpropanoic Acid] the value was 140 nM; for `Cc1c(-c2ccccc2)nc2ccc(Br)cc2c1C(=O)NCC(C)(C(=O)O)c1cccc(C(F)(F)F)c1` (single isomer, unassigned; (-)) [Example 42, (−)-3-{[(6-Bromo-3-methyl-2-phenylquinolin-4-yl)carbonyl]amino}-2-methyl-2-[3-(trifluoromethyl)phenyl]propanoic Acid], 120 nM; for `COc1cccc(C(CNC(=O)c2c(C)c(-c3ccccc3)nc3ccc(Br)cc23)C(=O)O)c1` (single isomer, unassigned; (-)) [Example 45, (−)-3-{[(6-Bromo-3-methyl-2-phenylquinolin-4-yl)carbonyl]amino}-2-(3-methoxyphenyl)propanoic Acid], 600 nM.

`Cc1c(-c2ccccc2)nc2ccc(Br)cc2c1C(=O)NCC(C(=O)O)c1cccc(Cl)c1` (single isomer, unassigned; (-)) [Example 48, (−)-3-{[(6-Bromo-3-methyl-2-phenylquinolin-4-yl)carbonyl]amino}-2-(3-chlorophenyl)propanoic Acid]: the IC50 was 33 nM.

In the case of `Cc1cccc(C(CNC(=O)c2c(C)c(-c3ccccc3)nc3ccc(Br)cc23)C(=O)O)c1` (single isomer, unassigned; (-)) [Example 51, (−)-3-{[(6-Bromo-3-methyl-2-phenylquinolin-4-yl)carbonyl]amino}-2-(3-methylphenyl)propanoic Acid], the IC50 turned out to be 42 nM. In the case of `COc1ccccc1C(O)(CNC(=O)c1c(C)c(-c2ccccc2)nc2ccc(Br)cc12)C(=O)O` (single isomer, unassigned; (-)) [Example 54, (−)-3-{[(6-Bromo-3-methyl-2-phenylquinolin-4-yl)carbonyl]amino}-2-hydroxy-2-(2-methoxyphenyl)propanoic Acid] it was 500 nM; in that of `COc1cccc(F)c1C(CNC(=O)c1c(C)c(-c2ccccc2)nc2ccc(Br)cc12)C(=O)O` (single isomer, unassigned; (-)) [Example 57, (−)-3-{[(6-Bromo-3-methyl-2-phenylquinolin-4-yl)carbonyl]amino}-2-(2-fluoro-6-methoxyphenyl)propanoic Acid], 210 nM. For `COc1ccccc1C(C)(CNC(=O)c1c(C)c(-c2ccccc2)nc2ccc(Br)cc12)C(=O)O` (single isomer, unassigned; (-)) [Example 59, (−)-3-{[(6-Bromo-3-methyl-2-phenylquinolin-4-yl)carbonyl]amino}-2-(2-methoxyphenyl)-2-methylpropanoic Acid] the value was 390 nM; for `Cc1c(-c2ccccc2)nc2ccc(Br)cc2c1C(=O)NCC(C)(C(=O)O)c1c(F)cccc1Cl` (single isomer, unassigned; (-)) [Example 62, (−)-3-{[(6-Bromo-3-methyl-2-phenylquinolin-4-yl)carbonyl]amino}-2-(2-chloro-6-fluorophenyl)-2-methylpropanoic Acid], 43 nM; for `Cc1c(-c2ccccc2)nc2ccc(Br)cc2c1C(=O)NCC(CC(=O)O)c1ccccc1` (single isomer, unassigned; (-)) [Example 64, (−)-4-{[(6-Bromo-3-methyl-2-phenylquinolin-4-yl)carbonyl]amino}-3-phenylbutanoic Acid], 340 nM. As to `Cc1c(-c2ccccc2)nc2ccc(Br)cc2c1C(=O)NCC(CC(=O)O)c1ccc(Cl)cc1` (single isomer, unassigned; (-)) [Example 68, (−)-4-{[(6-Bromo-3-methyl-2-phenylquinolin-4-yl)carbonyl]amino}-3-(4-chlorophenyl)butanoic Acid], the concentration for half-maximal inhibition (IC50) was > 1000 nM. For `Cc1ccccc1C(CNC(=O)c1c(C)c(-c2ccccc2)nc2ccc(Br)cc12)CC(=O)O` (single isomer, unassigned; (-)) [Example 76, (−)-4-{[(6-Bromo-3-methyl-2-phenylquinolin-4-yl)carbonyl]amino}-3-(2-methylphenyl)butanoic Acid], the IC50 turned out to be 23 nM.
